# From ChEMBL document CHEMBL1201862, “PubChem BioAssay data set” (2004)
# Active and inactive are the calls of the source.
# Columns and labels:
# [1] = biological target: Glyceraldehyde-3-phosphate dehydrogenase (Homo sapiens, UniProt P04406)
# [2] = biological target: T1, Alkaline phosphatase, tissue-nonspecific isozyme (Homo sapiens, UniProt P05186); experiment: human TNAP enzyme inhibitors, SAR follow-up, biochemical, luminescent, dose response (AID 1056)
# T1 sequence (P05186 whole entry): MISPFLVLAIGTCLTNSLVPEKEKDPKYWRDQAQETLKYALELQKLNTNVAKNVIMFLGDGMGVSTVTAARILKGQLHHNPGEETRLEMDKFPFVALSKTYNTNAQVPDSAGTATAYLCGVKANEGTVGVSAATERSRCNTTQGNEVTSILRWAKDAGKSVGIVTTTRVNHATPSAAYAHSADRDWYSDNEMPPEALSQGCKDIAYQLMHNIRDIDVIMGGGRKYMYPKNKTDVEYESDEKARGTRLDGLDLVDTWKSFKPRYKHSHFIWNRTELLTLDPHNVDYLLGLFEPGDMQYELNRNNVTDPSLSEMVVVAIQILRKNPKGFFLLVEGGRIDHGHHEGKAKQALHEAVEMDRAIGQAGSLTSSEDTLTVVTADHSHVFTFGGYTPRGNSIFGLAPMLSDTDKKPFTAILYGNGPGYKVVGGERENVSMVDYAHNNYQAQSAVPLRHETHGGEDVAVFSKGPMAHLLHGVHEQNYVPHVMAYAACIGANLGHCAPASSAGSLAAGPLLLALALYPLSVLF
# [3] = biological target: T2, Bcl-2-related protein A1 (Mus musculus, UniProt Q07440); assay type: functional;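 also: confirmatory dose–response counterscreen on Bfl-1, used to check hits from a UBC13 polyubiquitin inhibitor campaign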
# T2 sequence (Q07440 whole entry): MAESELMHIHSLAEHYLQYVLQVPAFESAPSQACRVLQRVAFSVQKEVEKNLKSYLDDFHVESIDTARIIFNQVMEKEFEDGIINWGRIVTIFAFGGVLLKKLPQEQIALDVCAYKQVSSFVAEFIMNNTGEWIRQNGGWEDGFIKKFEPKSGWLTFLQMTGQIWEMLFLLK
# [4] = biological target: T3, Ubiquitin-conjugating enzyme E2 N (Homo sapiens, UniProt P61088); assay type: functional
# T3 sequence (P61088 whole entry): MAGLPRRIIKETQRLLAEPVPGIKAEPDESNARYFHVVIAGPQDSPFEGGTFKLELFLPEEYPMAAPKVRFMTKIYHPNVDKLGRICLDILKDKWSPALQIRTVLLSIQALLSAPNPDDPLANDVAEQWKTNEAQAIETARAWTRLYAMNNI
# [5] = biological target: T3, Ubiquitin-conjugating enzyme E2 N; assay type: functional; remark: listed apart in the source
# [6] = biological target: Prothrombin (Homo sapiens, UniProt P00734); experiment: Thrombin 1536 HTS Dose Response Confirmation. [Related pubchem assays: 1046 (Thrombin 1536 HTS; hits were confirmed in this assay)]; assay type: functional
# [7] = A cytotoxicity screen of small molecule inhibitors of the PhoP region in Salmonella typhi identified in the primary screen. [Related pubchem assays: 1850, 1864, 1985 ]; assay type: functional
# [8] = THP-1 cell cytotoxicity, dose response, cytotoxicity control for non-replicating M. tuberculosis project (AID 489025); assay type: functional
# [9] = inhibitors of SNCA 5'UTR-driven reporter translation, confirmation, H4 neuroglioma cells, luminescence (AID 1988); assay type: functional, cell-based
# [10] = Luminescence Cell-Based Dose Response HTS to Identify Inhibitors of 5'UTR Stem-Loop Driven Prion Protein mRNA Translation in H4 Neuroglioblastoma Cells. [Related pubchem assays: 1827 (Project Summary), 1813 (Primary HTS)]; assay type: functional
# [11] = tested on: INS1; experiment: beta cell apoptosis inhibitors, cytokine rescue, dose response, luminescence, retest (AID 449756); assay type: functional, cell-based; settings: Rattus norvegicus;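 also: cell death triggered by IL-1 beta plus TNF-alpha plus IFN-gamma mixture; protective hits raise ATP signal compared with cytokine alone wells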
# [12] = inhibitors of firefly luciferase expression or activity, dose response, H4 neuroglioma cells, luminescence (AID 1990); assay type: functional, cell-based
# [13] = biological target: G-protein coupled receptor 55 (Homo sapiens, UniProt Q9Y2T6); experiment: GPR55 antagonists blocking LPI-driven arrestin recruitment, primary screen, imaging, U2OS, beta-arrestin-GFP, LPI agonist (AID 2013); assay type: functional;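 also: antagonist potency measured as reduced agonist-driven arrestin aggregation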
# [14] = biological target: FAD-linked sulfhydryl oxidase ALR (Homo sapiens, UniProt P55789); experiment: inhibitors of human ALR sulfhydryl oxidase, dose response, biochemical, H2O2 detection, luminescence, cherry-pick (AID 493248)
# [15] = biological target: T4, Short transient receptor potential channel 4 (Mus musculus, UniProt Q9QUQ5); experiment: mouse TRPC4 channel inhibitors, dose response, cell-based, HEK293 TRPC4/mu-opioid, Fluo-4 calcium (AID 434942); assay type: functional;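 also: potency of inhibitors blocking the TRPC4 calcium response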
# T4 sequence (Q9QUQ5 whole entry): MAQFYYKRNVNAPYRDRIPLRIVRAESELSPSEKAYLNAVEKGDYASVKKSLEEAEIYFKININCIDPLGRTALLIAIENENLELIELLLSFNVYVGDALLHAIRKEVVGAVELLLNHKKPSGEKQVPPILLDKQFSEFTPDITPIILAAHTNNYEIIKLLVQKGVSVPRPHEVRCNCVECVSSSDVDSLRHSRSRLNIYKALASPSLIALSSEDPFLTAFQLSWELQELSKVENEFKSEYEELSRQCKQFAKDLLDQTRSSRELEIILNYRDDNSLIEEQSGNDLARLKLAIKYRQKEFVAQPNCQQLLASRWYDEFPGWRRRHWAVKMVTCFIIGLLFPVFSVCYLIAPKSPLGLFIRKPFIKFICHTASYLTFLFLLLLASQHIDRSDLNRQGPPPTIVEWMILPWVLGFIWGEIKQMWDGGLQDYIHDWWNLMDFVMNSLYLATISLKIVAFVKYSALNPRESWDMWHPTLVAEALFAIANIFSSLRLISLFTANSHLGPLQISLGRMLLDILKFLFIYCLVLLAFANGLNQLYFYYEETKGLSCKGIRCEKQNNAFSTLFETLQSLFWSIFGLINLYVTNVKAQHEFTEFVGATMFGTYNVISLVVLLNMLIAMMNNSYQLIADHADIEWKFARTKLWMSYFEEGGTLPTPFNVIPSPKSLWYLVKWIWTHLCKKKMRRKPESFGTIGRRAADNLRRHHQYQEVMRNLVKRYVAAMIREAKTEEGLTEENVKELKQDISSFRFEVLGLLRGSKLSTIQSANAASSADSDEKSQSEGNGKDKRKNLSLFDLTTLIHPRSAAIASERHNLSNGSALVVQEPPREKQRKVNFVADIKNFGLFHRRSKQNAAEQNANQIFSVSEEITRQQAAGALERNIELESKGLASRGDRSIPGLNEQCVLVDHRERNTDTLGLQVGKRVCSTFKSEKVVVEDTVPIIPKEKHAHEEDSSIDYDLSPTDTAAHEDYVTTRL
# [16] = biological target: T5, Tyrosine-protein phosphatase non-receptor type 7 (Homo sapiens, UniProt P35236); experiment: inhibitors of human HePTP phosphatase, […], biochemical, absorbance, leukemia target (AID 521); assay type: functional
# T5 sequence (P35236 whole entry): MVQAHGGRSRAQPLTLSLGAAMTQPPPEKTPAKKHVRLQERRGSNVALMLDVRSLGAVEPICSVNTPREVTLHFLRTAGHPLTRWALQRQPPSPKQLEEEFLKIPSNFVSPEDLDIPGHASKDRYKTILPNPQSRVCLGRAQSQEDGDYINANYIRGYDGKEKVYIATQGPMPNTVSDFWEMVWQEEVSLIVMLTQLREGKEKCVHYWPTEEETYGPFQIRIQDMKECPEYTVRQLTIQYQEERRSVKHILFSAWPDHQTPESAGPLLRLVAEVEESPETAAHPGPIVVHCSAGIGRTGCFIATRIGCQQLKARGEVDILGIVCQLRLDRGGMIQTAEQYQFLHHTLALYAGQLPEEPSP
# Sequence of Glyceraldehyde-3-phosphate dehydrogenase (P04406 whole entry): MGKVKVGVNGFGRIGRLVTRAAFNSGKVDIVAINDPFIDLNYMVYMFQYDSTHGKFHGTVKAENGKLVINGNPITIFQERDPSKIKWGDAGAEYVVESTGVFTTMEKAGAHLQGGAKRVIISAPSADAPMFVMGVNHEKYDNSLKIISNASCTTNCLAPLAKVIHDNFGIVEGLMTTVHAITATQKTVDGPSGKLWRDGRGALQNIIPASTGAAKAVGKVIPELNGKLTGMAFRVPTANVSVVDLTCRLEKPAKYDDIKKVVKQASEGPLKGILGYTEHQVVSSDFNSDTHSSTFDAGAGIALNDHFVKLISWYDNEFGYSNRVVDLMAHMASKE
# Sequence of FAD-linked sulfhydryl oxidase ALR (P55789 whole entry): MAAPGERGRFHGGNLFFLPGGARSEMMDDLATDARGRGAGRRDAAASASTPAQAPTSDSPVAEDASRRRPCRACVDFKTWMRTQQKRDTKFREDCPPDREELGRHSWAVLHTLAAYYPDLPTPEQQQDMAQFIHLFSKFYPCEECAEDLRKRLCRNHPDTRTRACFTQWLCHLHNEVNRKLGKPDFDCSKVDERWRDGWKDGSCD
# Sequence of G-protein coupled receptor 55 (Q9Y2T6 whole entry): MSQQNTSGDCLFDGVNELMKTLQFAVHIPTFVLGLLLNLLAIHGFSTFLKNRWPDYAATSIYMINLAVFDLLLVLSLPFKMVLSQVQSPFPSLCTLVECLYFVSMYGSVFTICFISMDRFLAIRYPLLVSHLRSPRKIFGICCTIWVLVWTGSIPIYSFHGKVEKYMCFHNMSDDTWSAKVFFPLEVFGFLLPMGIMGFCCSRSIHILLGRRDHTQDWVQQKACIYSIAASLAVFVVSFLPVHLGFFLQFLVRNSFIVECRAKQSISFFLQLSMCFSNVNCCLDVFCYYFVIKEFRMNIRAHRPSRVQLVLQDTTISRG
structure (smiles),measurement,setting,value
CCCCSc1nnc(N)[nH]1,IC50,[1],> 100 µM (not active)
same,IC50,[2],> 100 µM (inactive)
O=C(C[n+]1ccc(CCSc2ccc(F)cc2)cc1)c1ccccc1,IC50,[3],5.2 µM (active)
same,IC50,[4],1.02 µM (active)
same,IC50,[5],1.46 µM (active)
O=C1CCC(C(=O)Nc2cccc3ccccc23)N1 (stereo not drawn),IC50,[6],> 50 µM (not active)
CCOc1cc(S(=O)(=O)Nc2cccnc2)c(OCC)cc1C,IC50,[2],2.61 µM (active)
Cc1occc1C(=O)N/N=C/C=C/c1ccccc1,EC50,[7],> 50 µM (active)
CC1=NN(C(=O)c2ccc(Cn3nc(C)c(Br)c3C)cc2)C(O)(C(F)(F)F)C1 (stereo not drawn),CC50,[8],34 µM (active)
CC(C)(C)n1nc2c(c1NC(=O)Cc1cccs1)CSC2,EC50,[7],> 50 µM (active)
CCN1CCN(Cc2ccc(NC(=O)c3cc(NC(=O)C(=O)c4c[nH]c5ccccc45)cc(OC)c3)cc2C(F)(F)F)CC1,EC50,[9],9.06 µM (active)
same,EC50,[10],6.9 µM (active)
same,IC50,[3],> 20 µM (inactive)
same,AC50,[11],7.13 µM (active)
same,IC50,[4],11.9 µM (active)
same,EC50,[12],8.53 µM (active)
same,IC50,[5],16.8 µM (active)
C=C(c1ccc(O)cc1)c1ccc(O)cc1,IC50,[13],1.75 µM (active)
same,AC50,[14],0.205 µM (active)
same,EC50,[15],3.76 µM (active)
O=S(=O)(Nc1ccccc1I)c1cnc2ccccc2c1,IC50,[1],> 10 µM (inconclusive)
same,IC50,[2],> 10 µM (inactive)
COc1ccc(NC(=O)CN2CCN(c3ccccc3F)CC2)cc1,IC50,[16],> 100 µM (not active)
